From EPA's ToxValDB 9.5

Tests used:
Mus musculus [1] = system: Mus musculus
Mus musculus [2] = conditions: developmental, M/F, developmental
Rattus norvegicus [3] = system: Rattus norvegicus
Rattus norvegicus [4] = conditions: chronic, oral, diet
Mus musculus [5] = conditions: reproduction developmental, oral, generation: P0
Rattus norvegicus [6] = conditions: developmental, oral, gavage, generation: F1
Rattus norvegicus [7] = conditions: oral
Rattus norvegicus [8] = conditions: oral, M/F
Rattus norvegicus [9] = conditions: oral; remark: listed apart in the source
Rattus norvegicus [10] = conditions: repeat dose other; oral
Mus musculus [11] = conditions: oral, gavage, B6C3F1
Rattus norvegicus [12] = conditions: oral, gavage, Fischer 344
Rattus norvegicus [13] = conditions: subchronic, oral, gavage
[14] = subchronic, reduced mean terminal body weight (males)
[15] = developmental, increased retinal folds in weanlings, reduced viability and lactation indices, reduced pup body weight, increased dead pups at birth
[16] = developmental, gavage, M/F, Crl:CD(SD), During lactation periods f1 & f2: increased pup mortality, decreased pup viability & bodyweight, decreased lactation index, increased …
[17] = two-generation, gavage, M/F, Crl:CD(SD), During lactation periods f1 & f2: increased pup mortality, decreased pup viability & bodyweight, decreased lactation index, increased …
[18] = developmental, inhalation, M/F, delayed fetal ossification

Brc1c(Br)c(Br)c(Oc2c(Br)c(Br)c(Br)c(Br)c2Br)c(Br)c1Br [2,2',3,3',4,4',5,5',6,6'-Decabromodiphenyl ether]
LOAEL (Mus musculus [1]; developmental, oral, gavage, M, neurobehavioral effects): 20.1 mg/kg-day
NOAEL (Mus musculus [1]; developmental, oral, gavage, neurobehavioral effects): 2.22 mg/kg-day
NOAEL (Mus musculus [2]; duration: 1 days, oral, gavage, NMRI): 1.34 mg/kg-day
LOAEL (Rattus norvegicus [3]; subchronic, duration: 8 weeks, oral, gavage, M, Sprague-Dawley, endocrine): 0.05 mg/kg-day
NOEL (Rattus norvegicus [4]; duration: 2 years, Liver: Increased weight): 1 mg/kg-day
LOEL (Mus musculus [5]; M/F, C57BL/6, P0: Operant test (fixed interval schedule, index of curvature, last block) + P0: Operant test (fixed interval schedule, index of curvature, …): 6 mg/kg-day
LOEL (Mus musculus [5]; M/F, C57BL/6, P0: Operant test (fixed interval schedule, overall response rate, first block) + P0: Operant test (fixed interval schedule, overall response…): 20 mg/kg-day
LOEL (Mus musculus [5]; M, Apoe3, P0: Morris water maze (swim distance in target quadrant)): 10 mg/kg-day
LOEL (Mus musculus [5]; M, Swiss Albino, P0: Morris water maze (latency, last trial) + P0: Morris water maze (latency, significant trial) + P0: Morris water maze (time spent in …): 20 mg/kg-day
LOEL (Rattus norvegicus [6]; M/F, Crl:CD(SD), F1: Water T maze (learning error)): 1000 mg/kg-day
LOEL (Rattus norvegicus [6]; M, Sprague-Dawley, F1: Morris water maze (latency, last trial) + F1: Morris water maze (latency, significant trial)): 30 mg/kg-day

C[C@@H]1C[C@H]2[C@@H]3CCC4=CC(=O)C=C[C@]4(C)[C@@]3(F)[C@@H](O)C[C@]2(C)[C@@]1(O)C(=O)CO [Dexamethasone]
NOEL (Rattus norvegicus [7]; short-term, gavage, Induction of hepatic tyrosine aminotransferase activity): 0.0015 mg/kg-day

CO[C@H]1C[C@H](O[C@@H]2/C(C)=C/C[C@@H]3C[C@@H](C[C@]4(CC[C@H](C)[C@@H](C5CCCCC5)O4)O3)OC(=O)[C@@H]3C=C(C)/C(=N/O)[C@H]4OC/C(=C\C=C\[C@@H]2C)[C@]43O)O[C@@H](C)[C@@H]1O [Selamectin]
NOAEL (Rattus norvegicus [7]; chronic, duration: 1 years, Increased liver and uterus/cervix weights): 5 mg/kg-day

CCOC(=O)C(C)OC(=O)c1cc(Oc2ccc(C(F)(F)F)cc2Cl)ccc1[N+](=O)[O-] (centres undefined) [Lactofen]
LEL (Mus musculus [1]; chronic, duration: 78 weeks, oral, M/F, hepatocytomegaly in males + Increased absolute and relative liver weight): 1.5 mg/kg-day

c1ccc2ccccc2c1 [Naphthalene]
LOAEL (Mus musculus [1]; chronic, inhalation, M/F, nasal effects: hyperplasia and metaplasia in respiratory and olfactory epithelium, respectively): 52.4 mg/m3
LOAEL (Rattus norvegicus [8]; [14]): 200 mg/kg-day
NOAEL (Rattus norvegicus [8]; [14]): 100 mg/kg-day
LOAEL (Rattus norvegicus [3]; chronic, duration: 105 weeks, inhalation, M/F, Fischer 344, respiratory): 52.4 mg/m3
LOAEL (Rattus norvegicus [3]; reproduction developmental, duration: 9 days, oral, gavage, F, Sprague-Dawley, neurological): 50 mg/kg-day

Nc1cc(Cl)cc(C(=O)O)c1Cl [Chloramben]
LEL (Mus musculus [1]; chronic, duration: 18 months, oral, diet, M/F, CD1, hepatocyte degeneration): 15 mg/kg-day

[Cr+3] [Chromium (III)]
LOAEL (Rattus norvegicus [3]; subchronic, duration: 13 weeks, inhalation, nose only, M/F, Fisher 344/Crl BR VAF/Plus, respiratory): 3 mg/m3
NOEL (% CrO3) (Rattus norvegicus [4]; duration: 840 days, None Observed): 5

[Ni] [Nickel]
NOAEL (Rattus norvegicus [3]; chronic, duration: 2 years, inhalation, M/F, Fischer 344, respiratory): 0.03 mg/m3
NOAEL (Rattus norvegicus [3]; subchronic, duration: 13 weeks, inhalation, M/F, Fischer 344, respiratory): 0.06 mg/m3
NOAEL (Rattus norvegicus [4]; duration: 2 years, Organs, major: Decreased organ weight + Whole body: Decreased body weight): 7.8 mg/kg-day

[Lu] [Lutetium]
NOAEL (Rattus norvegicus [9]; subchronic, duration: 90 days, diet, M/F, CRW): 504 mg/kg-day

Cc1ccccc1N [2-Methylaniline]
LOAEL (Rattus norvegicus [9]; subchronic, duration: 13 weeks, diet, M, Fischer 344): 301 mg/kg-day

Clc1cc2c(oc3cc(Cl)c(Cl)c(Cl)c32)c(Cl)c1Cl [1,2,3,6,7,8-Hexachlorodibenzofuran]
LOAEL (Rattus norvegicus [10]): 0.0016 mg/kg-day
NOAEL (Rattus norvegicus [10]): 0.00016 mg/kg-day

OCCCl [2-Chloroethanol]
NOAEL (Rattus norvegicus [9]; chronic, duration: 18 weeks, diet, M/F, FDRL, Whole Body Effects): 45 mg/kg-day

CC[C@H](C)[C@H]1O[C@]2(C=C[C@@H]1C)C[C@@H]1C[C@@H](C/C=C(\C)[C@@H](O[C@H]3C[C@H](OC)[C@@H](O[C@H]4C[C@H](OC)[C@@H](O)[C@H](C)O4)[C@H](C)O3)[C@@H](C)/C=C/C=C3\CO[C@@H]4[C@H](O)C(C)=C[C@@H](C(=O)O1)[C@]34O)O2 [Avermectin B1a]
LEL (Rattus norvegicus [8]; [15]): 0.4 mg/kg-day
NOEL (Rattus norvegicus [8]; [15]): 0.12 mg/kg-day
LOAEL (Rattus norvegicus [7]; [16]): 0.4 mg/kg-day
NOAEL (Rattus norvegicus [7]; [16]): 0.12 mg/kg-day
LOAEL (Rattus norvegicus [7]; [17]): 0.4 mg/kg-day
NOAEL (Rattus norvegicus [7]; [17]): 0.12 mg/kg-day

CCCl [Chloroethane]
LOAEL (Mus musculus [1]; [18]): 13000 mg/m3
NOAEL (Mus musculus [1]; [18]): 4000 mg/m3
NOAEL (Rattus norvegicus [9]; short-term, duration: 14 days, drinking water, F, Fischer 344, Whole Body Effects): 361 mg/kg-day
NOAEL (Mus musculus [2]; duration: 9 days, inhalation, CF1): 3970 mg/m3

CN(C)c1ccccc1 [N,N-Dimethylaniline]
LOAEL (Mus musculus [11]; short-term, duration: 15 days): 188 mg/kg-day
NOAEL (Mus musculus [11]; short-term, duration: 15 days): 93.8 mg/kg-day
LOAEL (Mus musculus [11]; subchronic, duration: 13 weeks): 62.5 mg/kg-day
NOAEL (Mus musculus [11]; subchronic, duration: 13 weeks): 31.2 mg/kg-day
NOAEL (Rattus norvegicus [12]; short-term, duration: 14 days): 93.8 mg/kg-day
NOAEL (Rattus norvegicus [12]; subchronic, duration: 13 weeks): 31.2 mg/kg-day
NOEL (Rattus norvegicus [13]; duration: 13 weeks, M/F, Fischer 344, Body Weight Changes: decrease + Histopathology: Spleen-Hematopoiesis, extramedullary Spleen-Hemosiderosis Kidney-Pigmentation Liver-…): < 31 mg/kg-day
NOEL (Rattus norvegicus [13]; M, Sprague-Dawley, Clinical Observation: Dark-red discoloration of skin R + Functional Observational Battery: Dark-red discoloration of skin R + Hematology: …): 1 mg/kg-day
LOAEL (Mus musculus [1]; subchronic, oral, gavage, M/F, splenomegaly, increased splenic hemosiderosis and hematopoiesis): 31.2 mg/kg-day
